Numbered stars: 1 amine (or outer) side, 2 acyl side, 3 side chain; on linkers, the order of the positions; unused ones are H or OH. Square brackets hold non-standard residues; d marks the D form. Side chains are listed from the residue outwards. Peptide text beside a SMILES is read from it. * marks the point of attachment. C18 diacid = O=C(O)CCCCCCCCCCCCCCCCC(=O)*; γGlu = O=C(O)[C@H](CCC(=O)[*:2])N[*:1]; AEEA = NCCOCCOCC(=O)O; Aib = CC(C)(N)C(=O)O
biological target: T1, human GLP-1 receptor (Homo sapiens, UniProt P43220); experiment: GLP-1 receptor binding, 125I-GLP-1 displacement SPA on isolated membranes; conditions: displacement of 125I-GLP-1 from membranes; read-out: IC50 GLP-1R
T1 construct: expressed in transfected cells; host or cells: BHK cells (parent BHKTS13), clone FCW467-12A/KZ10-1, with CRE luciferase
In short: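 SPA displacement of 125I-GLP-1(7-36)NH2 from membranes of BHK cells expressing human GLP-1 receptor, with WGA beads, in 50 mM HEPES, 5 mM EGTA, 5 mM MgCl2, 0.005% Tween 20, pH 7.4. Incubated 2 h at 30°C; IC50 by non-linear regression, run at ≤0.001% or 2.0% final serum albumin.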

T1 sequence (P43220 24-463): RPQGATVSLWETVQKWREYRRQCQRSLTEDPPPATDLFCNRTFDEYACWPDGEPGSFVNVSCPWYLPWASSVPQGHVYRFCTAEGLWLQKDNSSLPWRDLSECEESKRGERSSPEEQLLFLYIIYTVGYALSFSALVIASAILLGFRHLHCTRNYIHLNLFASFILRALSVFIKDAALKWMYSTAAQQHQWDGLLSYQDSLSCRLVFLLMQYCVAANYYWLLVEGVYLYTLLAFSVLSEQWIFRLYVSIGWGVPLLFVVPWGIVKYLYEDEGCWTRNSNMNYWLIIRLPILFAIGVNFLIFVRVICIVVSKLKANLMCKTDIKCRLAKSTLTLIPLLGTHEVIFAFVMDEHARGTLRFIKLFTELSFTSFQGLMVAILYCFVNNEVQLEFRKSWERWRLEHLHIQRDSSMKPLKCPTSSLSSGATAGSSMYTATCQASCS

Row | Compound | IC50
1 | CC(C)C[C@H](NC(=O)[C@H](Cc1c[nH]c2ccccc12)NC(=O)[C@H](CCC(N)=O)NC(=O)[C@@H](NC(=O)[C@H](Cc1ccccc1)NC(=O)[C@H](CCC(=O)O)NC(=O)[C@H](CCCNC(=N)N)NC(=O)[C@H](C)NC(=O)[C@H](CCCNC(=N)N)NC(=O)[C@H](CCCNC(=N)N)NC(=O)C(C)(C)NC(=O)[C@H](CC(=O)O)NC(=O)[C@H](CC(C)C)NC(=O)[C@H](Cc1ccc(O)cc1)NC(=O)[C@H](CCCCN)NC(=O)[C@H](CO)NC(=O)[C@H](CC(C)C)NC(=O)[C@H](CC(=O)O)NC(=O)[C@H](CO)NC(=O)[C@@H](NC(=O)[C@H](Cc1ccccc1)NC(=O)[C@@H](NC(=O)CNC(=O)[C@H](CCC(N)=O)NC(=O)C(C)(C)NC(=O)[C@@H](N)Cc1c[nH]cn1)[C@@H](C)O)[C@@H](C)O)C(C)C)C(=O)N[C@@H](CC(C)C)C(=O)N[C@@H](CCCCNC(=O)CC[C@H](NC(=O)CC[C@H](NC(=O)COCCOCCNC(=O)COCCOCCNC(=O)CC[C@H](NC(=O)CCCCCCCCCCCCCCCCC(=O)O)C(=O)O)C(=O)O)C(=O)O)C(=O)N[C@H](C(N)=O)[C@@H](C)O [Example 51, N^ε28-[(4S)-4-carboxy-4-[[(4S)-4-carboxy-4-[[2-[2-[2-[[2-[2-[2-[[(4S)-4-carboxy-4-(17-carboxyheptadecanoylamino)butanoyl]amino]ethoxy]ethoxy]acetyl]amino]ethoxy]ethoxy]acetyl]amino]butanoyl]amino]butanoyl]-[Aib2,Leu10,Aib16,Arg20,Glu21,Leu27,Lys28]-Glucagon amide] (H-H[Aib]QGTFTSDLSKYLD[Aib]RRAREFVQWLLK([γGlu-γGlu-AEEA-AEEA-γGlu-C18 diacid])T-NH2; N-terminus assumed) | 0.7 nM
2 | CC(C)C[C@H](NC(=O)[C@H](Cc1ccc(O)cc1)NC(=O)[C@H](CCCCN)NC(=O)[C@H](CO)NC(=O)[C@H](CC(C)C)NC(=O)[C@H](CC(=O)O)NC(=O)[C@H](CO)NC(=O)[C@@H](NC(=O)[C@H](Cc1ccccc1)NC(=O)[C@@H](NC(=O)CNC(=O)[C@H](CCC(N)=O)NC(=O)C(C)(C)NC(=O)[C@@H](N)Cc1c[nH]cn1)[C@@H](C)O)[C@@H](C)O)C(=O)N[C@@H](CCC(=O)O)C(=O)N[C@@H](CO)C(=O)N[C@@H](CCCCN)C(=O)N[C@@H](CCCNC(=N)N)C(=O)N[C@@H](C)C(=O)N[C@@H](CCCNC(=N)N)C(=O)N[C@@H](CCC(=O)O)C(=O)N[C@@H](Cc1ccccc1)C(=O)N[C@H](C(=O)N[C@@H](CCC(N)=O)C(=O)N[C@@H](Cc1c[nH]c2ccccc12)C(=O)N[C@@H](CC(C)C)C(=O)N[C@@H](CC(C)C)C(=O)N[C@@H](CCCCNC(=O)CC[C@H](NC(=O)CC[C@H](NC(=O)[C@H](CO)NC(=O)[C@H](CCC(=O)O)NC(=O)[C@H](CO)NC(=O)CC[C@H](NC(=O)CC[C@H](NC(=O)CCCCCCCCCCCCCCCCC(=O)O)C(=O)O)C(=O)O)C(=O)O)C(=O)O)C(=O)N[C@H](C(N)=O)[C@@H](C)O)C(C)C [Example 52] (H-H[Aib]QGTFTSDLSKYLESKRAREFVQWLLK([γGlu-γGlu-Ser-Glu-Ser-γGlu-γGlu-C18 diacid])T-NH2; N-terminus assumed) | 0.2 nM
3 | CC(C)C[C@H](NC(=O)[C@H](Cc1ccc(O)cc1)NC(=O)[C@H](CCCCN)NC(=O)[C@H](CO)NC(=O)[C@H](CC(C)C)NC(=O)[C@H](CC(=O)O)NC(=O)[C@H](CO)NC(=O)[C@@H](NC(=O)[C@H](Cc1ccccc1)NC(=O)[C@@H](NC(=O)CNC(=O)[C@H](CCC(N)=O)NC(=O)C(C)(C)NC(=O)[C@@H](N)Cc1c[nH]cn1)[C@@H](C)O)[C@@H](C)O)C(=O)N[C@@H](CCC(=O)O)C(=O)N[C@@H](CO)C(=O)N[C@@H](CCCCN)C(=O)N[C@@H](CCCNC(=N)N)C(=O)N[C@@H](C)C(=O)N[C@@H](CCCNC(=N)N)C(=O)N[C@@H](CCC(=O)O)C(=O)N[C@@H](Cc1ccccc1)C(=O)N[C@H](C(=O)N[C@@H](CCC(N)=O)C(=O)N[C@@H](Cc1c[nH]c2ccccc12)C(=O)N[C@@H](CC(C)C)C(=O)N[C@@H](CC(C)C)C(=O)N[C@@H](CCCCNC(=O)CC[C@H](NC(=O)CC[C@H](NC(=O)[C@H](CO)NC(=O)[C@H](CCC(=O)O)NC(=O)[C@H](CO)NC(=O)CC[C@H](NC(=O)CC[C@H](NC(=O)CCCCCCCCCCCCCCCCC(=O)O)C(=O)O)C(=O)O)C(=O)O)C(=O)O)C(=O)N[C@H](C(N)=O)[C@@H](C)O)C(C)C [Example 54, N^ε28-[(4S)-4-carboxy-4-[[(4S)-4-carboxy-4-[[(2S)-2-[[(2S)-4-carboxy-2-[[(2S)-2-[[(4S)-4-carboxy-4-[[(4S)-4-carboxy-4-(17-carboxyheptadecanoylamino)butanoyl]amino]butanoyl]amino]-3-hydroxypropanoyl]amino]butanoyl]amino]-3-hydroxypropanoyl]amino]butanoyl]amino]butanoyl]-[Aib2,Leu10,Glu15,Lys17,Arg20,Glu21,Leu27,Lys28]-Glucagon amide] (H-H[Aib]QGTFTSDLSKYLESKRAREFVQWLLK([γGlu-γGlu-Ser-Glu-Ser-γGlu-γGlu-C18 diacid])T-NH2; N-terminus assumed) | 0.2 nM
4 | CC(C)C[C@H](NC(=O)[C@H](CC(=O)O)NC(=O)[C@H](CC(C)C)NC(=O)[C@H](Cc1ccc(O)cc1)NC(=O)[C@H](CCCCN)NC(=O)[C@H](CO)NC(=O)[C@H](CC(C)C)NC(=O)[C@H](CC(=O)O)NC(=O)[C@H](CO)NC(=O)[C@@H](NC(=O)[C@H](Cc1ccccc1)NC(=O)[C@@H](NC(=O)CNC(=O)[C@H](CCC(N)=O)NC(=O)C(C)(C)NC(=O)[C@@H](N)Cc1c[nH]cn1)[C@@H](C)O)[C@@H](C)O)C(=O)N[C@@H](CCCNC(=N)N)C(=O)N[C@@H](CCCNC(=N)N)C(=O)N[C@@H](C)C(=O)N[C@@H](CCCNC(=N)N)C(=O)N[C@@H](CC(=O)O)C(=O)N[C@@H](Cc1ccccc1)C(=O)N[C@H](C(=O)N[C@@H](CCC(N)=O)C(=O)N[C@@H](Cc1c[nH]c2ccccc12)C(=O)N[C@@H](CC(C)C)C(=O)N[C@@H](CC(C)C)C(=O)N[C@@H](CCCCNC(=O)CNC(=O)[C@H](CO)NC(=O)[C@H](CCC(=O)O)NC(=O)[C@H](CO)NC(=O)CC[C@H](NC(=O)CC[C@H](NC(=O)CCCCCCCCCCCCCCCCC(=O)O)C(=O)O)C(=O)O)C(=O)N[C@H](C(N)=O)[C@@H](C)O)C(C)C [Example 55, N^ε28-[2-[[(2S)-2-[[(2S)-4-carboxy-2-[[(2S)-2-[[(4S)-4-carboxy-4-[[(4S)-4-carboxy-4-(17-carboxyheptadecanoylamino)butanoyl]amino]butanoyl]amino]-3-hydroxypropanoyl]amino]butanoyl]amino]-3-hydroxypropanoyl]amino]acetyl]-[Aib2,Leu10,Leu16,Arg20,Leu27,Lys28]-Glucagon amide] (H-H[Aib]QGTFTSDLSKYLDLRRARDFVQWLLK([Gly-Ser-Glu-Ser-γGlu-γGlu-C18 diacid])T-NH2; N-terminus assumed) | 1.1 nM
